Results reported in PubChem BioAssay (NCI).
Where “and” joins values, the source holds several entries; their conditions need not be identical. Equal values may be shown once.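 96-well plates; 48 h exposure; 5 concentrations. Endpoints by linear interpolation between flanking doses. Not reached: highest tested concentration assigned. GI50: concentration for 50% inhibition of growth. TGI marks complete inhibition of growth.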

What was measured:
Assay in all cases: inhibition of tumour cell growth, NCI panel, 48 h
[1] = test system: COLO 205 colon
[2] = test system: MCF7 breast
[3] = test system: ACHN renal
[4] = test system: A549 NSCLC
[5] = test system: HCT-116 colon
[6] = test system: HL-60(TB) leukemia
[7] = test system: HCT-15 colon
[8] = test system: HCC-2998 colon

Structure (SMILES) | GI50 [1] | TGI [1] | GI50 [2] | TGI [2] | GI50 [3] | TGI [3] | GI50 [4] | TGI [4] | GI50 [5] | TGI [5] | GI50 [6] | TGI [6] | GI50 [7] | TGI [7] | GI50 [8] | TGI [8]
Nc1nn(C(=O)Nc2c(F)cccc2F)c2ccccc12 | > 100 µM | > 100 µM | 60 µM | > 100 µM | 50.1 µM | > 100 µM | 48.5 µM | > 100 µM | 34.8 µM | > 100 µM | 33.2 µM | > 100 µM | 40.9 µM | > 100 µM | 95.8 µM | > 100 µM
CCCN(CCC)c1ccc(C=O)c(C)c1 | 29.1 µM | > 100 µM | 40.8 µM | > 100 µM | 49.4 µM | > 100 µM | 70.7 µM | > 100 µM | 35 µM | > 100 µM | 30.8 µM | > 84.4 µM | 41.6 µM | > 100 µM | 52.4 µM | > 100 µM
COc1cccc(C2SCc3nc4ccccc4n32)c1 (stereo unspecified) |  | > 100 µM |  |  |  | > 100 µM |  | > 100 µM |  | > 100 µM |  | > 100 µM |  | > 100 µM |  | > 100 µM
COc1ccc(-c2cn(-c3cc(OC)c(OC)c(OC)c3)c(=O)[nH]2)cc1OC | > 100 µM | > 100 µM | > 100 µM | > 100 µM | > 100 µM | > 100 µM | > 100 µM | > 100 µM | > 100 µM | > 100 µM | > 100 µM | > 100 µM | > 100 µM | > 100 µM | > 100 µM | > 100 µM
CCNCCNc1cc(-c2ccc(C(F)(F)F)cc2)c(C#N)c2nc3cc(Cl)c(Cl)cc3n12 | 1.68 µM | 3.22 µM | 0.168 µM | 0.352 µM | 1.61 µM | 3.1 µM | 1.37 µM | 2.77 µM | 0.177 µM | 0.338 µM | 0.308 µM | 1.01 µM | 0.289 µM | 0.935 µM | 2.34 µM | 4.14 µM
CCCCCCCCCCCCCCCCN(CC)CC | 2.01 µM | 3.82 µM | 2.33 µM | 6.09 µM | 2.1 µM | 4.45 µM |  |  | 1.77 µM | 3.22 µM |  |  | 1.88 µM | 3.66 µM | 1.77 µM | 3.3 µM
Cc1ccccc1C(C(=O)NC1CCCCC1)N(C(=O)CNc1ccc(C#N)cc1)c1cccc(F)c1 (stereo unspecified) | > 83.2 µM | > 100 µM | 49.8 µM | > 100 µM | 11.7 µM | > 100 µM | 44 µM | > 100 µM | 13.6 µM | > 100 µM | > 70.5 µM | > 100 µM | > 100 µM | > 100 µM | > 100 µM | > 100 µM
Cc1[nH]nc2ncc(C(=O)N3CCC[C@H]3c3ccc(Cl)cc3)cc12 |  |  | 41.6 µM | > 100 µM | 36.3 µM | > 100 µM | > 100 µM | > 100 µM | 33.1 µM | > 100 µM | 32.6 µM | 90.7 µM | 58.3 µM | > 100 µM | > 100 µM | > 100 µM
COc1cc(C2CC(=O)Nc3c2c(C)nn3-c2nc3ccccc3[nH]2)cc(OC)c1O (stereo unspecified) | 17.2 µM | 46 µM | 3.13 µM | > 100 µM | 3.11 µM | > 28.6 µM | 3.45 µM | > 40.2 µM | 3.45 µM | > 100 µM | 3.05 µM | 16.8 µM | 3.69 µM | > 100 µM | 6.48 µM | 35.7 µM
COc1ccc2c(c1)C(c1cc(OC)c3c(c1)OCO3)C1=C(COC1=O)N2 (stereo unspecified) | 0.277 µM | 0.713 µM | 0.261 µM | 27.3 µM | 1.57 µM | > 100 µM | 0.445 µM | > 100 µM | 0.417 µM | > 34.8 µM | 0.285 µM | 1.07 µM | 0.472 µM | > 65.1 µM | 0.432 µM | 
O=C1NC(=NCCc2ccccn2)S/C1=C\c1ccc2ncccc2c1 | 9.05 µM | > 25 µM | 10.5 µM | > 25 µM | 8.2 µM | > 25 µM | 8.29 µM | > 25 µM | 8.25 µM | > 25 µM | 7.66 µM | > 25 µM | 7.2 µM | > 25 µM | > 21.4 µM | > 25 µM
Cn1c(=O)c(Oc2ccc(F)cc2F)cc2cnc(NC3CCOCC3)nc21 | > 25 µM | > 25 µM | > 25 µM | > 25 µM | > 25 µM | > 25 µM | > 25 µM | > 25 µM | > 25 µM | > 25 µM | > 25 µM | > 25 µM | > 25 µM | > 25 µM | > 25 µM | > 25 µM
CC1Cc2ccccc2N1C(=O)Cc1nc(N2CCOCC2)cc(=O)[nH]1 (stereo unspecified) | 17.4 µM and 53.8 µM | 46.2 µM and > 100 µM | 2.3 µM and 4.77 µM | > 100 µM | 3.94 µM and 8.73 µM | > 100 µM | 17.3 µM and 24.5 µM | > 100 µM | 6.47 µM and 24.8 µM | > 100 µM | 20.7 µM and 25.5 µM | > 100 µM | 16.1 µM and 27.7 µM | > 100 µM | 18.1 µM and 28.6 µM | > 100 µM
O=c1oc2ccc(Br)cc2c(=O)n1-c1ccc(Cl)cc1F | 2.99 µM | 9.93 µM | 1.66 µM | 10.1 µM | 1.22 µM | 12.9 µM | 2.9 µM | > 94.8 µM | 1.14 µM | 4.33 µM | 1.12 µM | 4.96 µM | 1.7 µM | 9.52 µM | 2.68 µM | 9.53 µM
O=C1c2cc(F)ccc2-c2c1c1ccc([N+](=O)[O-])cc1c(=O)n2CCCBr | 46.8 µM | > 100 µM | 1.35 µM | > 100 µM | 3.91 µM | > 100 µM | 25.7 µM | > 100 µM | 7.23 µM | 36.7 µM |  |  | 56.8 µM | > 100 µM | 10.7 µM | > 100 µM
COc1cc2nc3cc([N+](=O)[O-])ccc3c(NCCNCC(C)O)c2cc1OC (stereo unspecified) | 0.368 µM | 1.57 µM | 0.332 µM | 1.57 µM | 0.614 µM | 3.93 µM | 1.43 µM | 5.13 µM | 0.358 µM | 1.75 µM | 2.52 µM | 6.66 µM | 3.27 µM | 13.1 µM |  | 
